According to PubChem BioAssay AID1963827 (Molecular Pharmacology Branch, DTP, NCI, 2024):

System: 994946-033-R-J1-PDC complex spheroid viability
Assay: Anticancer human tumor 994946-033-R-J1-PDC patient-derived melanoma cell line growth inhibition [POLQ]
Conditions: for IC50: curve of first compound; for viability, T/C: stronger effect = lower value
Summary of the method: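 Three-cell-type spheroids modelling solid tumor plus stroma served as the readout system; POL inhibitors were tested individually and in combination, concentration ranges set by clinical Cmax where known.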
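Further: spheroids exposed to drugs for 7 days.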
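Wherever viability, T/C is given: 100% = DMSO vehicle treated spheroids.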

In the case of `C=CCn1c(=O)c2cnc(Nc3ccc(N4CCN(C)CC4)cc3)nc2n1-c1cccc(C(C)(C)O)n1` + COC1C(OC(N)=O)C(O)C(Oc2ccc3c(O)c(NC(=O)c4ccc(O)c(CC=C(C)C)c4)c(=O)oc3c2C)OC1(C)C, the IC50 (second compound 0.0316 µM) is reported as 855 nM, the IC50 (second compound 0.1 µM) is reported as 863 nM and the IC50 (second compound 0.316 µM) is reported as 675 nM. For the same compound, the IC50 (second compound 1 µM) was greater than 1000 nM, the IC50 (second compound 3.16 µM) was greater than 1000 nM and the IC50 (second compound 10 µM) was 966 nM. For the same compound, the viability, T/C (second compound 0.0316 µM, first compound 0.00316 µM) was 89.1%, the viability, T/C (second compound 0.0316 µM, first compound 0.01 µM) was 115% and the viability, T/C (second compound 0.0316 µM, first compound 0.0316 µM) was 126%. It also gave a viability, T/C (second compound 0.0316 µM, first compound 0.1 µM) of 117%, a viability, T/C (second compound 0.0316 µM, first compound 0.316 µM) of 92.8% and a viability, T/C (second compound 0.0316 µM, first compound 1 µM) of 43.2%. It also gave a viability, T/C (second compound 0.1 µM, first compound 0.00316 µM) of 93.1%, a viability, T/C (second compound 0.1 µM, first compound 0.01 µM) of 101% and a viability, T/C (second compound 0.1 µM, first compound 0.0316 µM) of 117%. It also gave a viability, T/C (second compound 0.1 µM, first compound 0.1 µM) of 96%, a viability, T/C (second compound 0.1 µM, first compound 0.316 µM) of 89.2% and a viability, T/C (second compound 0.1 µM, first compound 1 µM) of 44.3%. For the same compound, the viability, T/C (second compound 0.316 µM, first compound 0.00316 µM) was 98.5%, the viability, T/C (second compound 0.316 µM, first compound 0.01 µM) was 109% and the viability, T/C (second compound 0.316 µM, first compound 0.0316 µM) was 134%. For the same compound, the viability, T/C (second compound 0.316 µM, first compound 0.1 µM) was 102%, the viability, T/C (second compound 0.316 µM, first compound 0.316 µM) was 83.9% and the viability, T/C (second compound 0.316 µM, first compound 1 µM) was 32.8%. For the same compound, the viability, T/C (second compound 1 µM, first compound 0.00316 µM) was 110%, the viability, T/C (second compound 1 µM, first compound 0.01 µM) was 118% and the viability, T/C (second compound 1 µM, first compound 0.0316 µM) was 94.9%. It also gave a viability, T/C (second compound 1 µM, first compound 0.1 µM) of 102%, a viability, T/C (second compound 1 µM, first compound 0.316 µM) of 104% and a viability, T/C (second compound 1 µM, first compound 1 µM) of 60.8%. The viability, T/C (second compound 3.16 µM, first compound 0.00316 µM) was 91.9%, the viability, T/C (second compound 3.16 µM, first compound 0.01 µM) was 127% and the viability, T/C (second compound 3.16 µM, first compound 0.0316 µM) was 106%. The viability, T/C (second compound 3.16 µM, first compound 0.1 µM) was 83.2%, the viability, T/C (second compound 3.16 µM, first compound 0.316 µM) was 56.5% and the viability, T/C (second compound 3.16 µM, first compound 1 µM) was 53.9%. It also gave a viability, T/C (second compound 10 µM, first compound 0.00316 µM) of 101%, a viability, T/C (second compound 10 µM, first compound 0.01 µM) of 104% and a viability, T/C (second compound 10 µM, first compound 0.0316 µM) of 120%. The viability, T/C (second compound 10 µM, first compound 0.1 µM) was 114%, the viability, T/C (second compound 10 µM, first compound 0.316 µM) was 93.8% and the viability, T/C (second compound 10 µM, first compound 1 µM) was 48.6%.
